Structures can show the parent of a compound that is named as a salt. Where two headings read alike, the source gives them in different places.
Columns and labels:
Type in all cases: in vivo
[1] = Narcotic antagonism I.P., Table IV
[2] = I.P. symptomatology (highest tolerated dose, median lethal dose), Table IV; details: for LD50 / MTD: in vivo, ip; for MTD: read-out: HTD (highest tolerated dose)
sciatic block = experiment: Local anesthetic sciatic block, Table IV; details: 1%
[3] = Analgesic activity, hot plate method
[4] = Analgesic activity, writhing method

| SMILES | Narcotic Antagonism [1] | LD50 [2] | MTD [2] | Local Anesthetic Sciatic Block (sciatic block) | also measured |
| --- | --- | --- | --- | --- | --- |
| Oc1ccc2c(c1)CCN(C[C@@H]1C[C@H]1c1ccccc1)CC2 (relative stereo) [Example 30, 7-Hydroxy-3(trans-2-phenylcyclopropylmethyl)-1,2,4,5-tetrahydro-3H,3-benzazepine] | Negative | > 1000 mg/kg | 1000 mg/kg |  |  |
| C[C@H]1Cc2ccccc2CCN1 (single isomer, unassigned) [Example 48, (-)-2-Methyl-1,2,4,5-tetrahydro-3H,3-benzazepine] | Some | 60 mg/kg | 30 mg/kg | Positive |  |
| C[C@@H]1Cc2ccccc2CCN1 (single isomer, unassigned) [Example 49, (+)-2-Methyl-1,2,4,5-tetrahydro-3H,3-benzazepine hydrochloride] | Negative | 200 mg/kg | 30 mg/kg | Positive |  |
| C[C@H]1Cc2ccccc2CCN1C (single isomer, unassigned) [Example 50, (+)-2,3-Dimethyl-1,2,4,5-tetrahydro-3H,3-benzazepine hydrochloride] | Negative |  | 10 mg/kg | Positive | LD50 (median lethal dose) [2]: 25 mg/kg |
| C[C@@H]1Cc2ccccc2CCN1C (single isomer, unassigned) [Example 54, (-)-2,3-Dimethyl-1,2,4,5-tetrahydro-3H,3-benzazepine hydrochloride] | Negative | 60 mg/kg | 3 mg/kg | Positive |  |
| COc1ccc2c(c1)CC(C)NCC2 (single isomer, unassigned; (+)) [Example 53, (+)-8-Methoxy-2-methyl-1,2,4,5-tetrahydro-3H,3-benzazepine hydrochloride] | Negative |  |  | Positive | HTD (highest tolerated dose) [2]: 10 mg/kg |
| CC(C)=CCN1CCc2ccc(O)cc2CC1C (single isomer, unassigned; (+)) [Example 56, (+)-3-(3,3-Dimethylallyl)-8-hydroxy-2-methyl-1,2,4,5-tetrahydro-3H,3-benzazepine hydrochloride] |  |  |  | Positive | Narcotic Antagonism ([1]; hydrochloride): Negative; HTD (highest tolerated dose) [2]: 10 mg/kg |
| CC1Cc2cc(O)ccc2CCN1C (single isomer, unassigned; (+)) [Example 57, (+)-8-Hydroxy-2,3-dimethyl-1,2,4,5-tetrahydro-3H,3-benzazepine hydrochloride] |  | > 100 mg/kg | 10 mg/kg | Positive |  |
| COc1ccc2c(c1)CC(C)N(C)CC2 (single isomer, unassigned; (+)) [Example 62, (+)-8-Methoxy-2,3-dimethyl-1,2,4,5-tetrahydro-3H,3-benzazepine hydrochloride] | Negative |  |  | Positive | HTD (highest tolerated dose) ([2]; hydrochloride): 10 mg/kg |
| COc1ccc2c(c1)CC(C)NCC2 (single isomer, unassigned; (-)) [Example 51, (-)8-Methoxy-2-methyl-1,2,4,5-tetrahydro-3H,3-benzazepine] | Negative |  | 10 mg/kg | Positive |  |
| CC(C)=CCN1CCc2ccc(O)cc2CC1C (single isomer, unassigned; (-)) [Example 55, (-)-3-(3,3-Dimethylallyl)-8-hydroxy-2-methyl-1,2,4,5-tetrahydro-3H,3-benzazepine hydrochloride] |  |  | 10 mg/kg | Positive |  |
| COc1ccc2c(c1)CC(C)N(C)CC2 (single isomer, unassigned; (-)) [Example 63, (-)-8-Methoxy-2,3-dimethyl-1,2,4,5-tetrahydro-3H,3-benzazepine hydrochloride] | Negative |  |  | Positive | HTD (highest tolerated dose) ([2]; hydrochloride): 3 mg/kg |
| COc1ccc2c3c1O[C@H]1[C@@H](O)C=C[C@H]4[C@@H](C2)N(C)CC[C@@]341 [Codeine, reference compound] |  |  |  |  | ED50 ([3]; ip): 12 mg/kg; ED50 ([3]; po): 20 mg/kg; ED50 ([4]; po): 17 mg/kg |
| Oc1ccc2c(c1)CCNCC2 [Example 2, 7-Hydroxy-1,2,4,5-tetrahydro-3H,3-benzazepine] | Negative | 200 mg/kg | 10 mg/kg | Positive |  |
| COc1ccc2c(c1)CCN(CC=C(C)C)CC2 [Example 3, 3-(3,3-Dimethylallyl)-7-methoxy-1,2,4,5-tetrahydro-3H,3-benzazepine] | Negative | 50 mg/kg | 30 mg/kg | Positive |  |
| CC(C)=CCN1CCc2ccc(OC(=O)C34CC5CC(CC(C5)C3)C4)cc2CC1 [Example 6, 7-(Adamantanecarbonyloxy)-3-(3,3-dimethylallyl)-1,2,4,5-tetrahydro-3H,3-benzazepine hydrochloride] | Positive | > 300 mg/kg | 10 mg/kg |  |  |
| Oc1ccc2c(c1)CCN(CC1CC1)CC2 [Example 8, 3-Cyclopropylmethyl-7-hydroxy-1,2,4,5-tetrahydro-3H,3-benzazepine] | Positive | 30 mg/kg | 20 mg/kg | Positive |  |

| SMILES | Narcotic Antagonism [1] | LD50 [2] | MTD [2] | Local Anesthetic Sciatic Block (sciatic block) | also measured |
| --- | --- | --- | --- | --- | --- |
| Oc1ccc2c(c1)CCN(CC1CCC1)CC2 [Example 9, 3-Cyclobutylmethyl-7-hydroxy-1,2,4,5-tetrahydro-3H,3-benzazepine] | Negative | 80 mg/kg | 20 mg/kg | Positive |  |
| C=CCN1CCc2ccc(O)cc2CC1 [Example 11, 3-Allyl-7-hydroxy-1,2,4,5-tetrahydro-3H,3-benzazepine] | Positive | 50 mg/kg | 20 mg/kg | Positive | ED50 ([3]; ip): 35 mg/kg; ED50 ([3]; po): > 316 mg/kg; ED50 ([4]; po): > 316 mg/kg |
| COc1ccc2c(c1)CCN(CC1CCCC1)CC2 [Example 12, 3-Cyclopentylmethyl-7-methoxy-1,2,4,5-tetrahydro-3H,3-benzazepine] |  |  |  |  | ED50 ([3]; ip): 45 mg/kg; ED50 ([3]; po): > 178 mg/kg; ED50 ([4]; po): > 178 mg/kg |
| COc1ccc2c(c1)CCN(CC1CCC1)CC2 [Example 13, 3-Cyclobutylmethyl-7-methoxy-1,2,4,5-tetrahydro-3H,3-benzazepine] | Negative | 80 mg/kg | 30 mg/kg |  |  |
| CCN1CCc2ccc(OC)cc2CC1 [Example 20, 3-Ethyl-7-methoxy-1,2,4,5-tetrahydro-3H,3-benzazepine] | Negative | 60 mg/kg | 1 mg/kg | Positive | ED50 ([3]; ip): 15 mg/kg; ED50 ([3]; po): > 125 mg/kg; ED50 ([4]; po): > 125 mg/kg; ED50 ([4]; sc): > 32 mg/kg |
| CCN1CCc2ccc(O)cc2CC1 [Example 21, 3-Ethyl-7-hydroxy-1,2,4,5-tetrahydro-3H,3-benzazepine] | Positive | 80 mg/kg | 30 mg/kg |  |  |
| CCCN1CCc2ccc(OC)cc2CC1 [Example 22, 7-Methoxy-3-n-propyl-1,2,4,5-tetrahydro-3H,3-benzazepine] | Positive | 50 mg/kg | 30 mg/kg |  | ED50 ([3]; ip): 26 mg/kg; ED50 ([3]; po): > 316 mg/kg; ED50 ([4]; po): > 316 mg/kg; ED50 ([4]; sc): > 32 mg/kg |
| COc1ccc2c(c1)CC(C)NCC2 (centres unmarked) [Example 32, 8-Methoxy-2-methyl-1,2,4,5-tetrahydro-3H,3-benzazepine] | Negative | ~60 mg/kg | ~10 mg/kg | Positive |  |
| COc1ccc2c(c1)CC(C)N(CC=C(C)C)CC2 (centres unmarked) [Example 33, 3-(3,3-Dimethylallyl)-8-methoxy-2-methyl-1,2,4,5-tetrahydro-3H,3-benzazepine hydrochloride] | Negative | 50 mg/kg | 1 mg/kg |  |  |
| COc1ccc2c(c1)CC(C)N(CC1CC1)CC2 (centres unmarked) [Example 42, 3-Cyclopropylmethyl-8-methoxy-2-methyl-1,2,4,5-tetrahydro-3H,3-benzazepine hydrochloride] | Negative | 60 mg/kg | 10 mg/kg |  |  |
| COc1ccc2c(c1)CC(C)N(CC=Cc1ccccc1)CC2 (centres unmarked) [Example 44, 8-Methoxy-2-methyl-3-(3-phenylallyl)-1,2,4,5-tetrahydro-3H,3-benzazepine hydrochloride] | Negative | 60 mg/kg | 10 mg/kg | Insoluable |  |
| COc1ccc2c(c1)CC(C)N(CCc1ccc(O)cc1)CC2 (centres unmarked) [Example 58, 3-(P-Hydroxyphenethyl-8-methoxy-2-methyl-1,2,4,5-tetrahydro-3H,3-benzazepine hydrochloride] | Negative | > 300 mg/kg | 1 mg/kg | Insoluble |  |
| COc1ccc2c(c1)CC(C)N(CCc1ccccc1C)CC2 (centres unmarked) [Example 59, 3-(o-Methylphenethyl)-8-methoxy-2-methyl-1,2,4,5-tetrahydro-3H,3-benzazepine hydrochloride] | Negative | ~60 mg/kg | 0.3 mg/kg | Insoluble |  |
| Oc1ccc2c(c1)CCN(Cc1ccco1)CC2 [Example 60, 3-Furfuryl-7-hydroxy-1,2,4,5-tetrahydro-3H,3-benzazepine hydrochloride] | Negative | ~200 mg/kg | 10 mg/kg | Positive |  |
| COc1ccc(CCN2CCc3ccc(OC)cc3CC2C)cc1 (centres unmarked) [Example 61, 8-Methoxy-3-(p-methoxyphenethyl-2-methyl-1,2,4,5-tetrahydro-3H,3-benzazepine hydrochloride] | Negative | ~60 mg/kg | 3 mg/kg | Positive |  |
| CN1CC[C@]23c4c5ccc(O)c4O[C@H]2[C@@H](O)C=C[C@H]3[C@H]1C5 [Morphine, reference compound] |  |  |  |  | Hot Plate ED50 ([3]; IP): 2.5 mg/kg; Hot Plate ED50 ([3]; PO): 14 mg/kg; Writhing ED50 ([4]; PO): 3 mg/kg |

From patent US4210749A, “Substituted 1,2,4,5-tetrahydro-3H,3 benzazepines” (priority 1979, dated 1980)
